Each structure is given as a SMILES string.

The record followed here is patent US4942040A, “Pharmaceutical preparation and a process for its preparation” (priority 1987, dated 1990).

What all share (assay type): physicochemical
Data set [1] can be described thus: Cumulative in vitro dissolution of felodipine and metoprolol (Example 1 tablet), USP dissolution apparatus No. 2, 50 rpm, pH 6.5 with 1% sodium dodecylsulphate. The settings on record: pH 6.5, 1% sodium dodecylsulphate. Here is the method: Cumulative in vitro dissolution of felodipine and metoprolol in
a phosphate buffer of pH 6.5 with 1% sodium dodecylsulphate.
Method: USP dissolution apparatus No. 2, 50 rpm.

A short description of data set [2]: Cumulative in vitro dissolution of metoprolol (Reference example B tablet), USP dissolution apparatus No. 2, 50 rpm, phosphate buffer pH 6.8. The settings on record: phosphate buffer pH 6.8, 50 rpm. An excerpt:
The dissolution rate in vitro from this tablet is shown in Table 3. |Cumulative in vitro dissolution of metoprolol in a phosphate buffer |pH 6.8. |Method: […]

Data set [3] can be described thus: Cumulative in vitro dissolution of nifedipine and metoprolol (Example 2 tablet), USP dissolution apparatus No. 2, 100 rpm, pH 6.5 with 1% sodium dodecylsulphate. The settings on record: pH 6.5, 1% sodium dodecylsulphate.

As to `CCOC(=O)C1=C(C)NC(C)=C(C(=O)OC)C1c1cccc(Cl)c1Cl` (stereo not drawn) [felodipine, 4-(2,3-dichlorophenyl)-1,4-dihydro-2,6-dimethyl-3,5-pyridinedicarboxylic acid ethyl methyl ester], the “Percent released over time (h)” value in data set [1] (0 h) is 0%; in data set [1] (2 h) it was 14%; in data set [1] (4 h) it was 32%; in data set [1] (8 h) it was 64%; in data set [1] (12 h), 88%; in data set [1] (16 h), 96%. The “Percent released over time (h)” value in data set [1] (20 h) is listed as 98%.
Consider `COCCc1ccc(OCC(O)CNC(C)C)cc1` (stereo not drawn) [metoprolol], for which the “Percent released over time (h)” value is 0% in data set [2] (0 h); 23% in data set [2] (1 h); 59% in data set [2] (4 h); 86% in data set [2] (8 h); 99% in data set [2] (12 h); 100% in data set [2] (20 h). For the same compound, the “Percent released over time (h)” value is 0% in data set [1] (0 h); 5% in data set [1] (2 h); 16% in data set [1] (4 h); 39% in data set [1] (8 h); 65% in data set [1] (12 h); 86% in data set [1] (16 h). Moreover, the “Percent released over time (h)” value in data set [1] (20 h) is listed as 95%; in data set [3] (0 h), 0%; in data set [3] (2 h) it was 6%; in data set [3] (4 h) it was 16%; in data set [3] (8 h), 34%; in data set [3] (12 h) it was 50%. For the same compound, the “Percent released over time (h)” value came out at 62% in data set [3] (16 h) and 75% in data set [3] (20 h).
